{"source": "patent US20250134849A1", "about": "“PHARMACEUTICAL COMPOSITION FOR PREVENTING OR TREATING OCULAR DISEASE COMPRISING ENAVOGLIFLOZIN” (DAEWOONG THERAPEUTICS INC., priority 2023, published 2025)", "test_system": "Macular Degeneration Animal Model", "assay": "Laser-induced macular degeneration animal model, fundus fluorescein angiography", "type": "in vivo, Chinchilla rabbits", "conditions": "intravitreal injection 2000 μg, n=5", "method": "Chinchilla rabbits (n=24, male) were raised at a temperature of 23±3° C., relative humidity of 55±15%, ventilation frequency of 10 to 20 times/hr, lighting time of 12 hours, and illuminance of 150 to 300 Lux. The environmental conditions such as temperature/humidity of the animal room, ventilation frequency and illuminance were measured regularly during the raising period. During the acclimation, administration, and observation periods, the rabbits were raised in a stainless-steel breeding box (W500×L800×H500 mm) at 1 animal per breeding box. The breeding boxes were cleaned every day and water bottles were exchanged every day. […]\nOn the 7th and 14th days after the start of administration in each group, a mydriatic agent (Mydriacyl® Eye Drops 1%) was instilled into the right eye of the rabbits, followed by anesthetizing. […] The efficacies were evaluated through retinal fundus fluorescein angiography. It was confirmed that the fluorescence intensity levels on days 7 and 14 in all macular degeneration-induced groups were higher than those in the normal control groups, G5 and G6 (p<0.001 or p<0.05).\nThe average fluorescence intensities of the vehicle-administered groups (G7 and G8) were set to 100% and the relative levels (%) of the fluorescence intensities measured in each animal were analyzed. […]", "data": [{"substance": "Aflibercept [Comparative Example 2]", "values": [{"measurement": "Fluorescence intensity at Day 7 (%), Mean", "setting": "day 7, relative to vehicle group G7 = 100%", "result": 93.345, "unit": "%"}, {"measurement": "Fluorescence intensity at Day 14 (%), Mean", "setting": "day 14, relative to vehicle group G8 = 100%", "result": 69.403, "unit": "%"}]}]}
